“And” between values parts separate entries of the source, which are not always exact repeats. Identical values can stand only once.
Assay: xn = mol fraction of the nth substance listed
Conditions: 313.15 K, 101 kPa, Liquid, Direct dilatometry

CC(=O)N(C)C [N,N-dimethylethanamide] + O
Conditions	excess molar volume
x1 = 0.0092	-3.79e-08 m3/mol
x1 = 0.0196	-8.59e-08 m3/mol
x1 = 0.03	-1.402e-07 m3/mol
x1 = 0.0556	-2.881e-07 m3/mol
x1 = 0.0704	-3.778e-07 m3/mol
x1 = 0.0823	-4.496e-07 m3/mol
x1 = 0.0853	-4.67e-07 m3/mol
x1 = 0.091	-4.98e-07 m3/mol
x1 = 0.0968	-5.344e-07 m3/mol
x1 = 0.0981	-5.428e-07 m3/mol
x1 = 0.1063	-5.918e-07 m3/mol
x1 = 0.1088	-6.146e-07 m3/mol
x1 = 0.1167	-6.527e-07 m3/mol
x1 = 0.1258	-7.063e-07 m3/mol
x1 = 0.1364	-7.653e-07 m3/mol
x1 = 0.1478	-8.283e-07 m3/mol
x1 = 0.1603	-8.946e-07 m3/mol
x1 = 0.1651	-9.21e-07 m3/mol
x1 = 0.1728	-9.553e-07 m3/mol and -9.577e-07 m3/mol
x1 = 0.1851	-1.017e-06 m3/mol
x1 = 0.1902	-1.039e-06 m3/mol
x1 = 0.2039	-1.098e-06 m3/mol
x1 = 0.2221	-1.172e-06 m3/mol
x1 = 0.2379	-1.229e-06 m3/mol
x1 = 0.2514	-1.273e-06 m3/mol
x1 = 0.2642	-1.315e-06 m3/mol
x1 = 0.2665	-1.318e-06 m3/mol
x1 = 0.2718	-1.334e-06 m3/mol
x1 = 0.2773	-1.349e-06 m3/mol
x1 = 0.2787	-1.35e-06 m3/mol
x1 = 0.2883	-1.374e-06 m3/mol
x1 = 0.2987	-1.397e-06 m3/mol
x1 = 0.31	-1.418e-06 m3/mol
x1 = 0.3216	-1.44e-06 m3/mol
x1 = 0.3377	-1.463e-06 m3/mol
x1 = 0.352	-1.479e-06 m3/mol
x1 = 0.3679	-1.493e-06 m3/mol
x1 = 0.3759	-1.501e-06 m3/mol
x1 = 0.3782	-1.499e-06 m3/mol
x1 = 0.3812	-1.502e-06 m3/mol
x1 = 0.3884	-1.506e-06 m3/mol
x1 = 0.3918	-1.505e-06 m3/mol
x1 = 0.3948	-1.508e-06 m3/mol
x1 = 0.4047	-1.511e-06 m3/mol
x1 = 0.4141	-1.511e-06 m3/mol
x1 = 0.4248	-1.511e-06 m3/mol
x1 = 0.4402	-1.507e-06 m3/mol
x1 = 0.4583	-1.497e-06 m3/mol
x1 = 0.47	-1.489e-06 m3/mol
x1 = 0.4759	-1.487e-06 m3/mol
x1 = 0.4881	-1.473e-06 m3/mol
x1 = 0.4976	-1.464e-06 m3/mol
x1 = 0.5257	-1.43e-06 m3/mol
x1 = 0.5546	-1.38e-06 m3/mol
x1 = 0.5961	-1.295e-06 m3/mol
x1 = 0.6483	-1.173e-06 m3/mol
x1 = 0.6819	-1.082e-06 m3/mol
x1 = 0.7273	-9.449e-07 m3/mol
x1 = 0.732	-9.375e-07 m3/mol
x1 = 0.755	-8.613e-07 m3/mol
x1 = 0.7743	-8.015e-07 m3/mol
x1 = 0.7939	-7.378e-07 m3/mol
x1 = 0.8089	-6.896e-07 m3/mol
x1 = 0.8158	-6.653e-07 m3/mol
x1 = 0.8331	-6.07e-07 m3/mol
x1 = 0.8622	-5.075e-07 m3/mol
x1 = 0.8823	-4.342e-07 m3/mol
x1 = 0.884	-4.256e-07 m3/mol
x1 = 0.9064	-3.494e-07 m3/mol
x1 = 0.9258	-2.754e-07 m3/mol
x1 = 0.9539	-1.863e-07 m3/mol
x1 = 0.9568	-1.596e-07 m3/mol
x1 = 0.9716	-1.062e-07 m3/mol

— the NIST ThermoML archive (doi:10.1016/j.jct.2007.09.009)
